Test results: paper PMC7707092, “Discovery and characterization of ORM‐11372, a novel inhibitor of the sodium‐calcium exchanger with positive inotropic activity” (British Journal of Pharmacology, 2020)
In brackets after ≈: the same amount, converted by molar mass. Read-outs that look alike come from different tables or passages of the source.

How the values were obtained:
hNCX1 = hNCX1 (Homo sapiens, UniProt P32418); assay: Confirmatory fluorescence assay for hNCX1 inhibition (forward mode, HEK293 cells, Charles River); format: cell-based
Experimental: A confirmatory hNCX1 inhibition assay was performed in Charles River Laboratories, Cleveland. Briefly, HEK293 cells stably expressing hNCX1 were plated in 384‐well black wall, clear‐bottom microtitre plates and the next day loaded with Fluo‐8 for 30 min at 37°C. A plate was inserted into a FLIPR^TETRA, and a baseline was recorded during a preincubation period where test compound or vehicle in a Na^+‐free HB‐PS containing thapsigargin (6 μM) and […] (30 μM) was added to each well for ~5 min. Next, the NCX1 stimulation period was recorded in which Na^+‐containing HB‐PS (with 2‐μM thapsigargin and 10‐μM FCCP) was added. The experiments were performed at room temperature. The kinetic data generated were reduced for each well to maximum relative fluorescence units (RFU) minus minimum RFU after subtracting bias based on the first sample. The mean of the max–min RFU values during the stimulation period for the 3–4 replicates at each concentration on a plate was then plotted versus concentration and fitted to a Hill equation.

NCX [1] = tested on: NCX; set-up: method as in ref 1 (a number printed in a supplementary file, which may have a reference list of its own: not looked up in the article's list); conditions: Rat, cited from earlier work
Solubility = format: physicochemical; conditions: pH 7.4 phosphate buffer
human NCX 1.1 = target: T1, human NCX 1.1 (Homo sapiens, UniProt P32418); assay: Fluorescence screening assay for hNCX 1.1 inhibition (reverse mode, Sf9 cells); format: cell-based; conditions: Sf9 cells expressing human NCX1.1, reverse mode, fluorescence; n=3 assays
T1 construct: expressed in transfected cells
Experimental: Spodoptera frugiperda (Sf9; RRID:CVCL_0549) cells are widely used for the transient and stable expression of recombinant proteins. Here, Sf9 cells were stably transfected with human NCX 1.1 and maintained in spinner flasks with insect cell culture medium (TNM‐FH), supplemented with 10% FBS, antibiotic–antimycotic solution, and 50 μg·ml^−1 of blasticidin at 28°C in a non‐humidified, CO2‐free atmosphere. The Sf9 cell suspension was subcultured three times a week.
NCX reverse mode activity was stimulated via a 50% dilution of the extracellular Na^+ level using the internal pipettor of FLEXstation, a fluorescence imaging plate reader (Molecular Devices, USA), while simultaneously monitoring intracellular calcium levels. After dilution, the concentration of other ions remained the same, but Na^+ concentration was diluted to the half of original concentration of 172 to 86 mM. For Sf9 insect cells, normal extracellular Na^+ ion concentration is 172 mM. Typically, 50 μl of a solution containing 150,000–200,000 Sf9–NCX cells was loaded onto each well of a 96‐well plate. Cells were preincubated with the intracellular calcium dye Fluo‐4 and Fluo‐6, and the concentrations of the test compound (three replicates) were determined for about 1 h at room temperature before experimentation. The extracellular solution contained (in mM) 172 NaCl, 10 HEPES, 1 CaCl2, 1.2 MgCl2, 0.33 NaH2PO4, 5 glucose, and 5 probenecid. The pH was adjusted to 7.4 with NaOH. The extracellular Na^+ was diluted by the addition of a Na^+‐free extracellular solution (containing in mM: 147 N‐methyl‐D‐glucamine (NMDG), 10 HEPES, 1 CaCl2, 1.2 MgCl2, 0.33 NaH2PO4, and 5 glucose with the pH adjusted by HCl to 7.4)‐induced robust and reproducible elevation of intracellular calcium. The osmolarity of both solutions was adjusted to 340–355 mOsm in order to match the Sf9 cell media osmolarity. In each plate, the IC50 determination for each test compound was based on relative fluorescence changes in comparison with control and 5‐mM nickel acetate‐induced NCX inhibition.

NCX [2] = tested on: NCX; set-up: method as in ref 1 (a number printed in a supplementary file, which may have a reference list of its own: not looked up in the article's list); conditions: Rabbit, cited from earlier work
NCX [3] = tested on: NCX; set-up: method as in ref 4 (a number printed in a supplementary file, which may have a reference list of its own: not looked up in the article's list); conditions: CCL39 fibroblast, cited from earlier work
MAO B = target: T2, MAO B (Homo sapiens, UniProt P27338); assay: MAO B inhibition (Table S2); format: biochemical; conditions: 10 μM
T2 sequence (P27338 1-520): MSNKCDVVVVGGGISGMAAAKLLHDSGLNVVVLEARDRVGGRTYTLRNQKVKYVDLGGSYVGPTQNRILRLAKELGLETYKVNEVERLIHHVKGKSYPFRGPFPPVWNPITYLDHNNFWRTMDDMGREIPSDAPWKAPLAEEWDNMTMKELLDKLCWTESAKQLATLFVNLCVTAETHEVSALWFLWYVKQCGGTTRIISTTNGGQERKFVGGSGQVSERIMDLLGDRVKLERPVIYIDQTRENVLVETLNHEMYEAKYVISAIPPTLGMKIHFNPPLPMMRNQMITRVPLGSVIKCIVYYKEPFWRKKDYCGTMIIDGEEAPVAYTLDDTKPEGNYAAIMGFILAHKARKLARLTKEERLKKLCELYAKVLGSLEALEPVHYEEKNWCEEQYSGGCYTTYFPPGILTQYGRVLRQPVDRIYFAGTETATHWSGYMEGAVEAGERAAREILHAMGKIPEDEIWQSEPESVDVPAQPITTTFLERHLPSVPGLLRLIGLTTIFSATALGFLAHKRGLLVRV

hERG = hERG (Homo sapiens, UniProt Q12809); assay: hERG IC50 of Table 1 / Table S2 (method not assigned); format: cell-based; conditions: human; n=4 assays
hERG, sequence (Q12809 whole entry): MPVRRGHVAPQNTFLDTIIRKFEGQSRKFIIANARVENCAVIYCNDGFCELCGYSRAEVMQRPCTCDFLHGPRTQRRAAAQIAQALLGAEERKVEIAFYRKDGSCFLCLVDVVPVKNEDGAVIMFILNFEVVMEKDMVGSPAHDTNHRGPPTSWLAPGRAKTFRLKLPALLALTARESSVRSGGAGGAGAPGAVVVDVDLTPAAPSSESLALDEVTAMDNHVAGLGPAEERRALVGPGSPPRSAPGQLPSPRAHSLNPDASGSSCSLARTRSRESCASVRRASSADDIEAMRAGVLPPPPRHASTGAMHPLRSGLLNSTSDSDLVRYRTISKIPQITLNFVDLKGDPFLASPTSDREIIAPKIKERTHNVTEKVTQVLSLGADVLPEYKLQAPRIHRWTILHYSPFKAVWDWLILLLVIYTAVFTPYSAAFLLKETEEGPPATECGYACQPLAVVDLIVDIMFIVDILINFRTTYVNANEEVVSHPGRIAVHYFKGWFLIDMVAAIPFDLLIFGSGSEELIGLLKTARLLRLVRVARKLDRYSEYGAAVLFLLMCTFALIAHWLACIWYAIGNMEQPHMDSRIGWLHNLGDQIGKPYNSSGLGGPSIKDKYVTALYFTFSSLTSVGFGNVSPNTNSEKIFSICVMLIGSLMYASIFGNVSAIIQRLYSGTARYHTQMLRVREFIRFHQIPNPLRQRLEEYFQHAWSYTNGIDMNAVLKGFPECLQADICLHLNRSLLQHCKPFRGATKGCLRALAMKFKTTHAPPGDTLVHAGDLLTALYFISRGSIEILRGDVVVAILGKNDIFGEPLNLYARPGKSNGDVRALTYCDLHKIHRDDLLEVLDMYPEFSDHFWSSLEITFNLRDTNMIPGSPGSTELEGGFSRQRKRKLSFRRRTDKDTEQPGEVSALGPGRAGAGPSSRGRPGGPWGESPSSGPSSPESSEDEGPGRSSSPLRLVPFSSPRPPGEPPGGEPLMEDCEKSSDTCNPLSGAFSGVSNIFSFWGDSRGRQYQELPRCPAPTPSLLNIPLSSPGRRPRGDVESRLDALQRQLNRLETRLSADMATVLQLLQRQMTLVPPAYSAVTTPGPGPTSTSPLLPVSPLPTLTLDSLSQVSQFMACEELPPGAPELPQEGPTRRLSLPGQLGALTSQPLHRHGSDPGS

MAO A = target: T3, MAO A (Homo sapiens, UniProt P21397); assay: MAO A inhibition (Table S2); format: biochemical; conditions: 10 μM
T3 sequence (P21397 1-527): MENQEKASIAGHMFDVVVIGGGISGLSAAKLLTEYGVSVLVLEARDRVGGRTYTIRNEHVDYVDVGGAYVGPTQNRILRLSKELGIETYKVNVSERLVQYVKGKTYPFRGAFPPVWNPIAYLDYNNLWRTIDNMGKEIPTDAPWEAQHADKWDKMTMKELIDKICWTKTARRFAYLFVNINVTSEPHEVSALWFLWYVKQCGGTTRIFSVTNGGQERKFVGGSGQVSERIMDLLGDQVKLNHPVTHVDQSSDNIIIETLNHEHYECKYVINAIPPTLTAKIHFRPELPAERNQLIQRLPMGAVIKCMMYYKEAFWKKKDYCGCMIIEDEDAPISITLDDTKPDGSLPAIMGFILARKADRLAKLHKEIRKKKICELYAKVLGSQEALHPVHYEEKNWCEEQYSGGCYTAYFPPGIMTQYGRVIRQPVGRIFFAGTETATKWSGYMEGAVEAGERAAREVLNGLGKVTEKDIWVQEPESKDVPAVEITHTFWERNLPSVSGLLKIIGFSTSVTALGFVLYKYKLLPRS

L-Type Ca2+ Channel = conditions: Table S2; cited from earlier work
NCX [4] = tested on: NCX; set-up: method as in ref 9 (a number printed in a supplementary file, which may have a reference list of its own: not looked up in the article's list); conditions: SH-SY5Y neuron, cited from earlier work

In the case of `N=C(N)SCCc1ccc(OCc2ccc([N+](=O)[O-])cc2)cc1` [KB-R7943], the IC50 (hNCX1; HEK293, forward mode, Table S2, read-out: hNCX1-HEK IC50) is given as 3.59 µM, the IC50 (NCX [1]; read-out: IC50 NCX forward) is given as 0.12 µM and the IC50 (NCX [1]; read-out: IC50 NCX reverse) is given as 0.061 µM. For the same compound, the Solubility class (Solubility) was “Moderate (moderate solubility between 10-100 µg/ml)”, the IC50 (human NCX 1.1) was 3.79 µM and the IC50 (NCX [2]; read-out: IC50 NCX forward) was 0.243 µM. For the same compound, the IC50 (NCX [2]; read-out: IC50 NCX reverse) was 0.309 µM.
In the case of `CCOC(=O)C1CSC(Cc2ccc(OCc3ccc([N+](=O)[O-])cc3)cc2)N1` (stereo not drawn) [SN‐6, 2‐[4‐(4‐nitrobenzyloxy)benzyl]thiazolidine‐4‐carboxylic acid ethyl ester], the IC50 (hNCX1; HEK293, text, read-out: IC50 hNCX1 (forward mode)) is given as > 100 µM, the solubility (Solubility; phosphate buffer, pH 7.4, aqueous buffer, read-out: Solubility class) is given as 10 to 100 µg/mL (≈ 24.8 to 248 µM) and the IC50 (NCX [3]; read-out: IC50 NCX forward) is given as > 30 µM. The IC50 (NCX [3]; read-out: IC50 NCX reverse) was 29 µM, the inhibition at 10 µM (MAO B) was 80% and the IC50 (hERG) was 102 µM. It also gave an IC50 (human NCX 1.1) of 16 µM and an inhibition at 10 µM (MAO A) of 38%.
For `Nc1cccc(CNC(=O)c2ccc(Oc3ccc(OCc4cccc(F)c4)cc3)nc2)c1` [YM-244769], the IC50 (L-Type Ca2+ Channel) is listed as > 3 µM, the IC50 (NCX [4]; read-out: IC50 NCX forward) is listed as 0.068 µM and the IC50 (NCX [4]; read-out: IC50 NCX reverse) is listed as 0.096 µM.
